System: A1847 parental and CARM1 knockout cells
Experiment: Epigenetic targeting small molecule set screen (14-day colony formation)
Assay type: cell-based, Human
Conditions: A1847 parental vs CARM1 knockout; 14 days; normalized to vehicle
Procedure: FIG. 26 illustrates that CARM1-expressing cells are selectively sensitized to EZH2 inhibitors. Equal number of parental control or CARM1 knockout […] cells were plated and treated with each of the 23 individual epigenetic inhibitors for 14 days. The media with the inhibitors was refreshed every 3 days. Cell growth was quantified as integrated density using NIH Image J software. Quantification of the average integrated density graphed as a scatter plot. The X-axis indicates the relative growth of treated CARM1 high parental […] cells compared with DMSO vehicle controls. Y-axis indicates the relative growth of treated CARM1 knockout […] cells compared with DMSO vehicle controls. n=4; and error bars represents SEM. FIG. 27 illustrates a table of EZH2 inhibitors that are selective against CARM1 expression. CARM1-high parental controls and CARM1 knockout […] cells were treated with the indicated concentration of the small molecules in a 14-day colony formation assay. Integrated density for each well was calculated using NIH Image J software. The relative growth of the indicated cells was determined by normalizing to the vehicle control treated cells. n=4 and p-value was calculated using a two-tailed t-test. FIG. 28 illustrates representative images of colonies formed by the cells treated with the indicated inhibitors. GSK126 and UNC1999 representative positive hits from the screen. […] parental and CARM1 knockout cells were plated in 24-well plates and treated with 24 epigenetic compounds. Cell medium was changed every three days with appropriate drug doses for 14 days or until control wells became confluent. Colonies were washed twice with PBS and fixed with 10% methanol and 10% acetic acid in distilled water. Fixed colonies were stained with 0.005% crystal violet. Integrated density was measured using NIH ImageJ software as a surrogate for cell growth.

| Structure (SMILES) | selective growth suppression of CARM1-expressing versus CARM1 KO cells |
| --- | --- |
| CC(=O)Nc1ccc(C(=O)Nc2ccccc2N)cc1 [CI994] | equally effective in suppressing the growth of both CARM-expressing and KO cells |
| CCCc1cc(C)[nH]c(=O)c1CNC(=O)c1cc(-c2ccc(N3CCN(C(C)C)CC3)nc2)cc2c1cnn2C(C)C [UNC1999, 1-isopropyl-6-(6-(4-isopropylpiperazin-1-yl)pyridin-3-yl)-N-((6-methyl-2-oxo-4-propyl-1,2-dihydropyridin-3-yl)methyl)-1H-indazole-4-carboxamide] | showed selectivity against CARM1-expressing cells |

— patent US12629364B2, “Methods of treating cancers overexpressing CARM1 with EZH2 inhibitors and platinum-based antineoplastic drugs” (The Wistar Institute of Anatomy and Biology, priority 2016, dated 2026)
